# Measured values taken from patent publication EP4563571A1, “PRMT5 INHIBITORS” (Beijing Earthwise Technology Co., Ltd., priority 2022, dated 2024).
# System: HCT116^MTAP Deletion cells
# Assay: Anti-proliferation assay on cells (Cell-Titer Glo, 10 days)
# Assay type: cell-based
# Details: 240 h, HCT116^MTAP Deletion cells, 10 days incubation, CTG readout; read-out: HCT116^MTAP Deletion GI50
# Protocol: HCT116^MTAP Deletion cells were from Pharmaron (China); HCT116 cells were from ATCC; McCoy's 5A medium was purchased from Invitrogen (USA); penicillin-streptomycin and fetal bovine serum were purchased from Gibco (USA); a 384-well plate was purchased from PerkinElmer (USA); and Cell-Titer Glo reagent was purchased from Promega (USA).
# Compound dissolution: All the compounds were dissolved in dimethyl sulfoxide (DMSO) and then stored. The compounds were stored at room temperature in a dry condition for 3 months for short term storage or at -20 °C for long term storage.
# Cell culture and passaging
# The cells were cultured strictly in accordance with ATCC requirements. The cell culture medium (McCoy's 5A medium + 10% fetal bovine serum + 1% penicillin + streptomycin) was transferred to a 15 mL centrifuge tube and centrifuged at 1000 rpm for 5 min. The supernatant was removed. The cells were resuspended with complete culture medium, inoculated into a culture dish at the required density, and cultured in an incubator at 37 °C, 95% humid air, and 5% carbon dioxide. The culture medium was replenished or the cells were passaged every 2-3 days depending on the cell growth condition.
# Cell proliferation activity assay
# When the confluency of cells in the culture dish reached about 90%, the cells were washed twice with PBS, and then treated with trypsin to become single cells. The cells were counted, and 40µl of the cells was inoculated into each well of a 384-well plate (50 cells/well). The plate was equilibrated at 37 °C and 5% carbon dioxide for 10 to 15 minutes. The compounds were injected into the 384-well plate using Echo550, and positive control and negative control (0.1% DMSO) were set up. Each compound was subjected to a 3-fold dilution, resulting in 10 concentration gradients, in duplicate, and the content of DMSO was 0.1%. The 384-well plate was incubated in a cell culture incubator for 10 days.
# Then, 40 µl of cell proliferation assay reagent (CTG) was added to the 384-well plate, and the plate was shaken to mix well. Then, the 384-well plate was incubated at 37 °C and 5% carbon dioxide in the dark for 30 minutes. The data were read using the Envision multifunctional microplate reader. […] According to the different drug concentrations and their corresponding inhibition rates, the GI50 curve was drawn using GraphPad 8.0 software. The data were analyzed, and the final IC50 value was obtained.
row,SMILES,GI50
1,CN(C(=O)C(=O)Nc1cnc(N)c2c1COC2)C1COCc2cc(C(F)(F)F)ccc21 (stereo not shown) [Example 56],10 to 100 nM
2,CCC(C)N(Cc1ccc(C#N)c(Cl)n1)C(=O)C(=O)Nc1cnc(N)c(C)c1 (stereo not shown) [Example 77],10 to 100 nM
3,CN(C(=O)C(=O)Nc1cnc(N)c2c1cnn2C)C1COc2cc(C(F)(F)C(F)(F)F)ccc21 (stereo not shown) [Example 210],< 10 nM
4,CCN(C(=O)C(=O)Nc1cnc(N)c2c1cnn2C)C1COCc2cc(C(F)(F)F)ccc21 (stereo not shown) [Example 101],< 10 nM
5,CCC(C)N(Cc1cc(C(F)(F)F)ccn1)C(=O)C(=O)Nc1cnc(N)c(C)c1 (stereo not shown) [Example 105],100 to 1000 nM
6,CCC(C)N(Cc1ccn(C)n1)C(=O)C(=O)Nc1cnc(N)c(C)c1 (stereo not shown) [Example 72],1000 to 10000 nM
7,CCC(C)N(Cc1ccc(C(F)(F)F)nn1)C(=O)C(=O)Nc1cnc(N)c(C)c1 (stereo not shown) [Example 65],100 to 1000 nM
8,Nc1ncc(NC(=O)C(=O)N(Cc2ccc(C(F)(F)F)cn2)Cc2ccnc3[nH]ccc23)c2c1COC2 [Example 64],10 to 100 nM
9,CN(C(=O)C(=O)Nc1cnc(N)c2c1cnn2C)C1COC(C)(C)c2cc(C(F)(F)F)ccc21 (stereo not shown) [Example 147],10 to 100 nM
10,CCOc1ccc(CN(C(=O)C(=O)Nc2cnc(N)c(C)c2)C(C)CC)nc1 (stereo not shown) [Example 62],10 to 100 nM
11,CC(C)N(C(=O)C(=O)Nc1cnc(N)c2c1cnn2C)C1COCc2cc(C(F)(F)F)ccc21 (stereo not shown) [Example 96],10 to 100 nM
12,CN(C(=O)C(=O)Nc1cnc(N)c2c1COC2)C1CCOCc2cc(C(F)(F)F)ccc21 (stereo not shown) [Example 49],100 to 1000 nM
13,CN(C(=O)C(=O)Nc1cnc(N)c2c1cnn2C)C1COc2cc(-c3ccccc3F)ccc21 (stereo not shown) [Example 214],< 10 nM
14,CCC(C)N(Cc1cnc(C(F)(F)F)nc1)C(=O)C(=O)Nc1cnc(N)c(C)c1 (stereo not shown) [Example 58],> 10000 nM
15,CCc1ccc2c(c1)OCC2N(C)C(=O)C(=O)Nc1cnc(N)c2c1cnn2C (stereo not shown) [Example 206],< 10 nM
16,[2H]C([2H])([2H])N(C(=O)C(=O)Nc1cnc(N)c2c1cnn2C)C1COCc2cc(C(F)(F)F)ccc21 (stereo not shown) [Example 109],< 10 nM
17,CCC(C)N(Cc1cccc(C(F)(F)F)n1)C(=O)C(=O)Nc1cnc(N)c(C)c1 (stereo not shown) [Example 87],100 to 1000 nM
18,Cc1cc(NC(=O)C(=O)N(Cc2ccc(C(F)(F)F)cn2)CC23CC(C2)C3)cnc1N [Example 53],100 to 1000 nM
19,CCC(C)N(Cc1nc(C)cs1)C(=O)C(=O)Nc1cnc(N)c(C)c1 (stereo not shown) [Example 76],100 to 1000 nM
20,CN(C(=O)C(=O)Nc1cnc(N)c2c1cnn2C)C1COc2cc(C(F)(F)F)cc(F)c21 (stereo not shown) [Example 176],10 to 100 nM
21,CCC(C)N(Cc1ccc(C(F)(F)F)nc1)C(=O)C(=O)Nc1cnc(N)c(C)c1 (stereo not shown) [Example 57],100 to 1000 nM
22,CCC(C)N(Cc1ccc(S(F)(F)(F)(F)F)cc1)C(=O)C(=O)Nc1cnc(N)c(C)c1 (stereo not shown) [Example 69],100 to 1000 nM
23,CCC(C)N(C(=O)C(=O)Nc1cnc(N)c(C)c1)C(C)c1ccc(C(F)(F)F)cn1 (stereo not shown) [Example 74],1000 to 10000 nM
24,COc1ncc(NC(=O)C(=O)N(C)C2COCc3cc(C(F)(F)F)ccc32)cc1C(N)=O (stereo not shown) [Example 143],100 to 1000 nM
25,CC#Cc1ccc2c(c1)OCC2N(C)C(=O)C(=O)Nc1cnc(N)c2c1cnn2C (stereo not shown) [Example 240],10 to 100 nM

# Results, then the compound that gave them:
row,GI50,SMILES
1,10 to 100 nM,CN(C(=O)C(=O)Nc1cnc(N)c2c1cnn2C)C1COc2cc(C3CCOCC3)ccc21 (stereo not shown) [Example 190]
2,10 to 100 nM,CN(C(=O)C(=O)Nc1cnc(N)c2c1cnn2C)C1COc2cc(N3CCOCC3)ccc21 (stereo not shown) [Example 205]
3,10 to 100 nM,CN(C(=O)C(=O)Nc1cnc(N)c2c1cnn2C)C1COCc2cc(N3CCOCC3)ccc21 (stereo not shown) [Example 175]
4,10 to 100 nM,CN(C(=O)C(=O)Nc1cnc(N)c2c1cnn2C)C1COCc2ccc(C(F)(F)F)cc21 (stereo not shown) [Example 134]
5,10 to 100 nM,CN(C(=O)C(=O)Nc1cnc(N)c2c1cnn2C)C1COCc2cc(C3(F)CNC3)ccc21 (stereo not shown) [Example 203]
6,< 10 nM,Cc1nn(C)cc1-c1ccc2c(c1)COCC2N(C)C(=O)C(=O)Nc1cnc(N)c2c1cnn2C (stereo not shown) [Example 200]
7,< 10 nM,CN(C(=O)C(=O)Nc1cnc(N)c2c1cnn2C)C1COCc2cc(OC(F)(F)F)ccc21 (stereo not shown) [Example 115]
8,< 10 nM,CN(C(=O)C(=O)Nc1cnc(N)c2c1cnn2C)C1COCc2cc(Cl)c(Cl)cc21 (stereo not shown) [Example 158]
9,10 to 100 nM,CN(C(=O)C(=O)Nc1cnc(N)c2c1cnn2C)C1COCc2cc(C3=CCCOC3)ccc21 (stereo not shown) [Example 108]
10,10 to 100 nM,CN(C(=O)C(=O)Nc1cnc(N)c2c1cnn2C)C1COCc2cc(C3CCOCC3)ccc21 (stereo not shown) [Example 144]
11,< 10 nM,Cc1ncc(-c2ccc3c(c2)COCC3N(C)C(=O)C(=O)Nc2cnc(N)c3c2cnn3C)o1 (stereo not shown) [Example 207]

# Same assay, conditions: HCT116^MTAP Deletion cells, 10 days incubation, CTG readout; read-out: HCT116^MTAP Deletion GI50
row,SMILES,GI50
1,CCC(C)N(Cc1ccc(C(F)(F)F)cn1)C(=O)C(=O)Nc1cnc(N)c2c1cnn2C (racemic) [Example 46-P1],10 to 100 nM
2,CCC(C)N(Cc1ccc(C(F)(F)F)cn1)C(=O)C(=O)Nc1cnc(N)c2c1cnn2C (stereo not shown) [Example 52],< 10 nM
3,C[C@H](c1ncccn1)N(Cc1ccc(C(F)(F)F)cn1)C(=O)C(=O)Nc1cnc(N)c2ccncc12 [Example 32],100 to 1000 nM
4,Cc1ccc2c(c1)OCC2N(C)C(=O)C(=O)Nc1cnc(N)c2c1cnn2C (stereo not shown) [Example 233],10 to 100 nM
5,CCC(C)N(Cc1ccc(C2=CCN(C(=O)OC)CC2)cn1)C(=O)C(=O)Nc1cnc(N)c(C)c1 (stereo not shown) [Example 125-P2],< 10 nM
6,CN(C(=O)C(=O)Nc1cnc(N)c2c1cnn2C)C1COc2cc(-c3cnn(C4CC4)c3)ccc21 (stereo not shown) [Example 211],< 10 nM
7,CN(C(=O)C(=O)Nc1cnc(N)c2c1cnn2C)C1COc2cc(-c3ccnn3C3CC3)ccc21 (stereo not shown) [Example 212],< 10 nM
8,"Cc1cc(NC(=O)C(=O)N(Cc2ccc(C(F)(F)F)cn2)C(C)c2cscn2)cnc1N (single isomer, unassigned) [Example 19-P1]",10 to 100 nM
9,Cc1cc(NC(=O)C(=O)N(Cc2ccc(C(F)(F)F)cn2)CC2CC2)cnc1N [Example 15],10 to 100 nM
10,Cc1cc(NC(=O)C(=O)N(Cc2ccc(C3=CCOCC3)nn2)[C@H](C)c2ncccn2)cnc1N [Example 42],100 to 1000 nM
11,Cc1nc(NC(=O)C(=O)N(Cc2ccc(C(F)(F)F)cn2)[C@H](C)c2ncccn2)cnc1N [Example 27],100 to 1000 nM
12,"Cc1cc(NC(=O)C(=O)N(Cc2ccc(C(F)(F)F)cn2)C2CCCOC2)cnc1N (single isomer, unassigned) [Example 14-P1]",100 to 1000 nM
13,Cc1cc(NC(=O)C(=O)N(Cc2ccc(C#N)cn2)[C@H](C)c2ncccn2)cnc1N [Example 28],1000 to 10000 nM

# The next lines start with the values.
row,GI50,SMILES
1,< 10 nM,CN(C(=O)C(=O)Nc1cnc(N)c2c1cnn2C)C1COCc2cc(C3=CCC(F)(F)CC3)ccc21 (racemic) [compound 174]
2,< 10 nM,Cc1ncc(-c2ccc3c(c2)COCC3N(C)C(=O)C(=O)Nc2cnc(N)c3c2cnn3C)s1 (racemic) [compound 181]
3,< 10 nM,CN(C(=O)C(=O)Nc1cnc(N)c2c1cnn2C)C1COCc2cc(-c3cnn(C4CC4)c3)ccc21 (racemic) [compound 223]
4,< 10 nM,CN(C(=O)C(=O)Nc1cnc(N)c2c1cnn2C)C1COCc2cc(C(F)(F)F)ccc21 (stereo not shown) [Example 48]
5,< 10 nM,CN(C(=O)C(=O)Nc1cnc(N)c2c1cnn2C)C1COCc2cc(Br)ccc21 (racemic) [compound 182]
6,100 to 1000 nM,CN(C(=O)C(=O)Nc1cnc(N)c2c1cnn2C)C1COCc2c1ccc(F)c2F (stereo not shown) [Example 141-P2]
